# Key:
# [1] = test system: adipocyte; assay: In vivo browning study in lean mice: Fat % by image analysis of H&E stained tissue; parameters: species or system Mice (C57BJ/6); conditions: mice, SC injection, Formula III one side and mirabegron other side; high and middle dosage merged; H&E images
# Experimental: (§1) Mice (8-10 weeks old males C57BJ/6 strain) were obtained from a commercial vendor Charles River Laboratories. The animal study protocols were approved by the Institutional Animal Care and Use Committee, at the Procter & Gamble Company. Mice were acclimated to the facility for 14 days prior to initiating the study. From arrival, mice were housed in solid-bottom shoebox styled cages within room temperature of 22±2° C. with ad libitum access to water and regular rodent chow diet on a 12 h light/dark cycle. Mice were single housed and offered bedding and various enrichment options. The bedding and nesting material allowed the mice to thermoregulate to their desired level of comfort. Body weights were recorded at the beginning of the study, on each dosing day prior to dosing, and final weights were recorded at the end of the study. Overall food consumption, fecal output, and body appearance were monitored during cage side clinical observations but were not scientifically measured or tracked. During the dosing period, the animals were observed several times per day (for example, before and during injection, immediately to 30-min post injection, a few hours after injection, and end of work day).
# […] The injection was performed using a 25-27-gauge ½-⅝″ length needle via a subcutaneous (SC) injection near or into the inguinal fat pad region of the lower abdomen. Dosing was done twice a week injections over 3 weeks. Necropsy was done at week 4. […]
# Segments of adipocyte and inter-cellular regions in a stained image were identified by Python […] package. […] The threshold between adipocyte and inter-cellular regions in a converted image was detected by the Otsu filter function of the […]. The detected value was adjusted by multiplying 1.1.
# The ratio of adipocyte in an image was calculated from the pixel number of the segments—Adipocyte Pixel was divided by Total Pixel.
# The significance of the difference in Adipocyte Ratio between treatment and control groups was assessed by the Negative Binomial Generalized Linear Mixed-Effects Model using glmer.nb function of R lme4 package. […]
# [2] = test system: fat tissue; assay: qPCR biomarker analysis of fat tissue, in vivo; parameters: species or system Mice (C57BJ/6); conditions: mouse fat tissue, SC injection twice a week over 3 weeks
# Experimental: as §1
# Three groups of animals were treated with mirabegron (i.e. positive control) (n=4), placebo (n=2) and Formula III (n=6) on the left side while the right side received placebo in all three groups. The injection was performed using a 25-27-gauge ½-⅝″ length needle via a subcutaneous (SC) injection near or into the inguinal fat pad region of the lower abdomen. Dosing was done twice a week injections over 3 weeks. Necropsy was done at week 4. Test materials were administered at room temperature and in a neutral pH range. Three days after last dosing animals were euthanized with CO2 inhalation, inguinal fat pads were harvested, and tissues were processed for histology and biomarker analysis.
# The qPCR biomarker analysis was conducted from flash frozen fat tissue from mouse study described above. First, RNA was manually extracted with RNAdvance Tissue kit (Agencourt). RNA was extracted from flash frozen fat tissue according to manufactuer's directions. For example, 5 mm steel beads were placed in the freezer for approximately 15-20 minutes. Next, Qiagen Buffer RLT was cooled to 4° C. for 20 minutes and placed in a 96 well 1.5 mL tube rack for sample transfer. Isopropanol was added to Agencourt wash buffer. 100 mL aliquots of 70% ethanol in water were prepared. The RNA Tissue beads were allowed to warm to 22° C. (˜30 minutes), and then the beads were shaken vigorously and intermittently for at least 15-20 minutes. 1 stainless steel bead was added to a 2 mL round bottom tube stored on dry ice. The tissue sample was then transferred to the 2 mL round bottom tube.
# The tube rack was placed on wet ice. Then, the tubes were transferred from dry ice to the rack in wet ice and 350 μL of cold buffer RLT were added to the tubes. The beads were beaten at 30 Hz for 2 minutes. After bead beating, samples were centrifuged for 2 minutes. The supernatant was transferred into 96 well deep well isolation plate.
# 80 μL of RNATissue beads were combined with 320 μL of isopropanol to create a Bind Buffer. This solution was prepared fresh for each isolation with any unused solution discarded.
# 400 μL of Bind Buffer was added to the to RLT mixture and slowly mixed. The solution was incubated at room temperature for 10 minutes. Special care was taken to avoid the formation of bubbles while tip mixing.
# The mixture was placed on a magnet (96 well plate—Agencourt SPRIPlate) for 6-10 minutes. After the solution became clear, the supernatant was removed from each tube while the tubes remained on the magnet and the solution was discarded.
# The tubes were removed from the magnet and the pellets were washed with 800 μL of the Isopropanol Wash Buffer ten times. […]
smiles,measurement,setting,value
"Nc1nc(CC(=O)Nc2ccc(CCNC[C@H](O)c3ccccc3)cc2)cs1 [Mirabegron, mirabegron]",Average Fat % (Adipocyte Pixel / Total Pixel),[1],94.43%
same,Average Fold vs Placebo: AdipoQ,[2],13.7
same,Average Fold vs Placebo: Adrb3,[2],16.3
same,Average Fold vs Placebo: Cidea,[2],39.7
same,Average Fold vs Placebo: Cox7a1,[2],27.8
same,Average Fold vs Placebo: Cox8b,[2],38.6
same,Average Fold vs Placebo: Dio2,[2],8.3
same,Average Fold vs Placebo: Elovl3,[2],19.1
same,Average Fold vs Placebo: IL6,[2],3.3
same,Average Fold vs Placebo: Ppargc1,[2],12.0
same,Average Fold vs Placebo: Prdm16,[2],5.0
same,Average Fold vs Placebo: Tfap2a,[2],15.2
same,Average Fold vs Placebo: UCP1,[2],170.3

# — patent US20200138764A1, “METHODS AND DEVICES FOR ACTIVATING ADIPOSE TISSUE” (The Procter & Gamble Company, priority 2018, published 2020)
